Data taken from PubChem BioAssay (NCI).
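Tested at 5 concentrations; 48 h exposure; 96-well plates; endpoints linearly interpolated, else capped at highest concentration. TGI: total growth inhibition.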

What was measured:
Test in all cases: NCI anticancer screen, dose series, 48 h
SK-MEL-5 melanoma = system: SK-MEL-5 melanoma
OVCAR-3 ovarian = system: OVCAR-3 ovarian
SF-539 CNS = system: SF-539 CNS
MDA-MB-435 = system: MDA-MB-435
HL-60(TB) leukemia = system: HL-60(TB) leukemia
BT-549 breast = system: BT-549 breast
SF-268 CNS = system: SF-268 CNS
A549 NSCLC = system: A549 NSCLC
M14 melanoma = system: M14 melanoma
UO-31 renal = system: UO-31 renal
SK-OV-3 ovarian = system: SK-OV-3 ovarian
SK-MEL-2 melanoma = system: SK-MEL-2 melanoma
COLO 205 colon = system: COLO 205 colon
CAKI-1 renal = system: CAKI-1 renal
SNB-75 CNS = system: SNB-75 CNS
NCI/ADR-RES ovarian = system: NCI/ADR-RES ovarian
MALME-3M melanoma = system: MALME-3M melanoma
U251 CNS = system: U251 CNS
DU-145 prostate = system: DU-145 prostate
NCI-H522 lung = system: NCI-H522 lung
A498 renal = system: A498 renal
SW-620 colon = system: SW-620 colon
MDA-N = system: MDA-N
OVCAR-4 ovarian = system: OVCAR-4 ovarian
HOP-62 NSCLC = system: HOP-62 NSCLC
PC-3 prostate = system: PC-3 prostate
NCI-H460 lung = system: NCI-H460 lung
SNB-19 CNS = system: SNB-19 CNS
OVCAR-5 ovarian = system: OVCAR-5 ovarian
HCC-2998 colon = system: HCC-2998 colon
MCF7 breast = system: MCF7 breast
OVCAR-8 ovarian = system: OVCAR-8 ovarian
CCRF-CEM leukemia = system: CCRF-CEM leukemia
HS 578T breast = system: HS 578T breast
MOLT-4 leukemia = system: MOLT-4 leukemia
MDA-MB-231 breast = system: MDA-MB-231 breast
T-47D breast = system: T-47D breast
HT29 colon = system: HT29 colon
UACC-257 melanoma = system: UACC-257 melanoma
HCT-116 colon = system: HCT-116 colon
EKVX NSCLC = system: EKVX NSCLC
SN12C renal = system: SN12C renal
UACC-62 melanoma = system: UACC-62 melanoma
K-562 leukemia = system: K-562 leukemia
SR leukemia = system: SR leukemia
SK-MEL-28 melanoma = system: SK-MEL-28 melanoma
TK-10 renal = system: TK-10 renal
NCI-H23 lung = system: NCI-H23 lung
HCT-15 colon = system: HCT-15 colon
HOP-92 NSCLC = system: HOP-92 NSCLC
LOX IMVI melanoma = system: LOX IMVI melanoma
SF-295 CNS = system: SF-295 CNS
KM12 colon = system: KM12 colon
NCI-H226 lung = system: NCI-H226 lung
786-0 renal = system: 786-0 renal
ACHN renal = system: ACHN renal

COc1ccc(C(=O)N(C(=O)N2CCN(c3ccccc3)CC2)S(=O)(=O)c2ccccc2)cc1
TGI (SK-MEL-5 melanoma): 28 µM
TGI (OVCAR-3 ovarian): > 100 µM
TGI (SF-539 CNS): 35.9 µM
TGI (MDA-MB-435): > 100 µM
TGI (HL-60(TB) leukemia): 48.9 µM
TGI (BT-549 breast): > 100 µM
TGI (SF-268 CNS): > 100 µM
TGI (A549 NSCLC): 88.8 µM
TGI (M14 melanoma): 42.6 µM
TGI (UO-31 renal): 26.7 µM
TGI (SK-OV-3 ovarian): > 100 µM
TGI (SK-MEL-2 melanoma): 35 µM
TGI (COLO 205 colon): 31.8 µM
TGI (CAKI-1 renal): 54.2 µM
TGI (SNB-75 CNS): 63.8 µM
TGI (NCI/ADR-RES ovarian): 66.7 µM
TGI (MALME-3M melanoma): 93.4 µM
TGI (U251 CNS): 35.3 µM
TGI (DU-145 prostate): 72.2 µM
TGI (NCI-H522 lung): 33.3 µM
TGI (A498 renal): > 100 µM
TGI (SW-620 colon): > 100 µM
TGI (MDA-N): 65.4 µM
TGI (OVCAR-4 ovarian): > 100 µM
TGI (HOP-62 NSCLC): > 100 µM
TGI (PC-3 prostate): > 100 µM
TGI (NCI-H460 lung): > 100 µM
TGI (SNB-19 CNS): 74.9 µM
TGI (OVCAR-5 ovarian): 70.8 µM
TGI (HCC-2998 colon): > 100 µM
TGI (MCF7 breast): > 100 µM
TGI (OVCAR-8 ovarian): 53.5 µM
TGI (CCRF-CEM leukemia): > 100 µM
TGI (HS 578T breast): 79.5 µM
TGI (MOLT-4 leukemia): 46.5 µM
TGI (MDA-MB-231 breast): 81.9 µM
TGI (T-47D breast): 54 µM
TGI (HT29 colon): > 100 µM
TGI (UACC-257 melanoma): > 100 µM
TGI (HCT-116 colon): 42.1 µM
TGI (EKVX NSCLC): 50.4 µM
TGI (SN12C renal): 55.9 µM
TGI (UACC-62 melanoma): 39.6 µM
TGI (K-562 leukemia): 94.4 µM
TGI (SR leukemia): 42.8 µM
TGI (SK-MEL-28 melanoma): > 100 µM
TGI (TK-10 renal): > 100 µM
TGI (NCI-H23 lung): 73.2 µM
TGI (HCT-15 colon): > 100 µM
TGI (HOP-92 NSCLC): 72.3 µM
TGI (LOX IMVI melanoma): 38 µM
TGI (SF-295 CNS): > 100 µM
TGI (KM12 colon): > 100 µM
TGI (NCI-H226 lung): 58.8 µM
TGI (786-0 renal): 90.5 µM
TGI (ACHN renal): 35.2 µM
